The source of these data is patent publication US20020110590A1, “Pharmaceutical formulation containing DEMO for the treatment of cancer” (Ilex Oncology, Inc., priority 1996, published 2002).

Data set [1] deals with advanced solid tumors or lymphomas. Particulars: patients with advanced solid tumors or lymphomas; cited from earlier work.
For data set [2] the following is noted: oral administration; cited from earlier work.
For data set [3], the system named is polyamine pools. The settings on record: cited from earlier work.
The nature of data set [4]: Solubility of DFMO. The class given is physicochemical.
The conditions of data set [5]: any route of drug administration; cited from earlier work.
For data set [6] the following is noted: healthy men; cited from earlier work.
The target of data set [7] is T1, ornithine decarboxylase (ODC) (Homo sapiens, UniProt P11926).
T1 sequence (P11926 1-461): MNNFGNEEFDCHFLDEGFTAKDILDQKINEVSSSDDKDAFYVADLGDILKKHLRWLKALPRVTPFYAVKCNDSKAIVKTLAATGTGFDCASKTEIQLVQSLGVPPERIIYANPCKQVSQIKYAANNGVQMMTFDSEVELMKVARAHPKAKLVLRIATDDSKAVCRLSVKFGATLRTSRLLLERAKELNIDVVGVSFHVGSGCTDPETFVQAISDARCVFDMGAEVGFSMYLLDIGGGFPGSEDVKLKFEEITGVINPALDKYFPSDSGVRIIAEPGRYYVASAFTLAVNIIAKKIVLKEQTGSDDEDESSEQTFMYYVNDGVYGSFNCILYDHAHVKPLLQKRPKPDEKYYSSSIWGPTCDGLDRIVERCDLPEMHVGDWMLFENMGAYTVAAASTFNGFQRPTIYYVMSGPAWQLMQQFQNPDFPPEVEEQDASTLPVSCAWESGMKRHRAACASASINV
Particulars: reported by some (Danzin, 1987); cited from earlier work.

As to `NCCC[C@](N)(C(=O)O)C(F)F` (racemic) [DFMO, alpha-difluoromethylornithine], the therapeutic responses result in data set [1] was “No therapeutic responses”. Moreover, the maximum tolerated dose entry in data set [2] was “about 12 g/m^2/day”. In addition, the “minimum effective dose (MED) in significantly reducing polyamine pools in vivo” value in data set [3] is given as “about 0.43 g/day”. The water solubility entry in data set [4] is “very water-soluble”. For the same compound, in data set [4] (neutral pH versus acid), the “solubility of DFMO at a neutral pH” value is on record as “relatively lower solubility”. For the same compound, the therapeutic responses entry in data set [5] is reported as “No therapeutic responses”. Further, in data set [6], the “elimination half-life t½” value is listed as “about 3.5 hours” and the “share of drug elimination accounted for by renal clearance” value is recorded as 83%.
Take `NCCC[C@](N)(C(=O)O)C(F)F` [(−)-DFMO, alpha-difluoromethylornithine]: in data set [7], the “enantiomer responsible for ODC inhibition” value was “enantiomer primarily responsible for ODC inhibition”.
